Test results from ChEMBL document CHEMBL1201862, “PubChem BioAssay data set” (2004).
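In this assay, cells in 96-well plates receive the compound at five concentrations for 48 hours. Endpoints are linearly interpolated between the surrounding concentrations. At the GI50, growth is halved.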 Calls of active or inactive are those of the source. Rule as the data show it: active = GI50 up to about 1.1 µM and inactive = higher.

Experiments:
Assay in all cases: NCI tumour cell line growth inhibition, 48 h
PC-3 = system: PC-3
SNB-19 = system: SNB-19
CCRF-CEM = system: CCRF-CEM
KM12 = system: KM12
NCI-H522 = system: NCI-H522
HCT-116 = system: HCT-116
MCF7 = system: MCF7
SF-539 = system: SF-539
COLO 205 = system: COLO 205
BT-549 = system: BT-549
UACC-62 = system: UACC-62
ACHN = system: ACHN
HOP-92 = system: HOP-92
SW-620 = system: SW-620
SNB-75 = system: SNB-75
OVCAR-8 = system: OVCAR-8
SK-OV-3 = system: SK-OV-3
NCI-H226 = system: NCI-H226
U-251 = system: U-251
A549 = system: A549

Row | SMILES | GI50 (PC-3) | GI50 (SNB-19) | GI50 (CCRF-CEM) | GI50 (KM12) | GI50 (NCI-H522) | GI50 (HCT-116) | GI50 (MCF7) | GI50 (SF-539) | GI50 (COLO 205) | GI50 (BT-549) | GI50 (UACC-62) | GI50 (ACHN) | GI50 (HOP-92) | GI50 (SW-620) | GI50 (SNB-75) | GI50 (OVCAR-8) | GI50 (SK-OV-3) | GI50 (NCI-H226) | GI50 (U-251) | GI50 (A549)
1 | COC(=O)[C@@H]1[C@@H]2NC(=S)N[C@@]1(C)Oc1ccccc12 | 63.5 µM (inactive) | 49 µM (inactive) | 61.9 µM (inactive) | 29.7 µM (inactive) | 31.6 µM (inactive) | 67.6 µM (inactive) | 45.7 µM (inactive) | 37.7 µM (inactive) | 37.5 µM (inactive) | 83.6 µM (inactive) | 78.3 µM (inactive) | 87.9 µM (inactive) | 49.9 µM (inactive) | 55.7 µM (inactive) | 27.4 µM (inactive) | 51.5 µM (inactive) | 47.8 µM (inactive) | 91.4 µM (inactive) | 38.3 µM (inactive) | –
2 | Cc1ccc([N+](=O)[O-])cc1S(=O)(=O)Nc1ccc(C2=NN(C(=O)c3ccccc3)C(c3ccccc3O)C2)cc1 (stereo not drawn) | 13.2 µM (inactive) | 28.2 µM (inactive) | 17.5 µM (inactive) | 28.6 µM (inactive) | 12.6 µM (inactive) | 11.4 µM (inactive) | 13.4 µM (inactive) | 17.3 µM (inactive) | 14.3 µM (inactive) | 14 µM (inactive) | – | 15.7 µM (inactive) | 12 µM (inactive) | 30.9 µM (inactive) | 17.1 µM (inactive) | 13.9 µM (inactive) | 19.1 µM (inactive) | 14.9 µM (inactive) | 16.5 µM (inactive) | 19.1 µM (inactive)
3 | CCC/C(Cl)=N\OC(=O)Nc1ccc(F)c([N+](=O)[O-])c1 | 15.2 µM (inactive) | 15.2 µM (inactive) | 3.74 µM (inactive) | 16.7 µM (inactive) | 1.79 µM (inactive) | 26.2 µM (inactive) | 25.5 µM (inactive) | 24 µM (inactive) | 3.54 µM (inactive) | 10.2 µM (inactive) | 18.7 µM (inactive) | 4.97 µM (inactive) | 15 µM (inactive) | 4.8 µM (inactive) | 17.6 µM (inactive) | 17.5 µM (inactive) | 24.6 µM (inactive) | 24.2 µM (inactive) | 18.3 µM (inactive) | 24.7 µM (inactive)
4 | OC(CC(CC(O)(C(F)(F)F)C(F)(F)F)=NN=C(CC(O)(C(F)(F)F)C(F)(F)F)CC(O)(C(F)(F)F)C(F)(F)F)(C(F)(F)F)C(F)(F)F | > 10 µM (inactive) | > 10 µM (inactive) | > 10 µM (inactive) | > 10 µM (inactive) | > 10 µM (inactive) | > 10 µM (inactive) | > 10 µM (inactive) | > 10 µM (inactive) | > 10 µM (inactive) | > 10 µM (inactive) | > 10 µM (inactive) | > 10 µM (inactive) | > 10 µM (inactive) | > 10 µM (inactive) | > 10 µM (inactive) | > 10 µM (inactive) | > 10 µM (inactive) | > 10 µM (inactive) | > 10 µM (inactive) | > 10 µM (inactive)
5 | CC(C)OP(=O)(OC(C)C)C(C)(C)O | > 100 µM (inactive) | > 100 µM (inactive) | > 100 µM (inactive) | > 100 µM (inactive) | > 100 µM (inactive) | > 100 µM (inactive) | > 100 µM (inactive) | > 100 µM (inactive) | > 100 µM (inactive) | > 100 µM (inactive) | > 100 µM (inactive) | > 100 µM (inactive) | > 100 µM (inactive) | > 100 µM (inactive) | > 100 µM (inactive) | > 100 µM (inactive) | > 100 µM (inactive) | > 100 µM (inactive) | > 100 µM (inactive) | > 100 µM (inactive)
6 | CCCCCCCCCCCCCCCCCCOCC(COCCOCC[N+]1(CCCCCC(=O)[O-])CCCC1)Oc1ncccn1 (stereo not drawn) | 0.643 µM (active) | 2.17 µM (inactive) | 2.59 µM (inactive) | 2.58 µM (inactive) | 1.34 µM (inactive) | 1.82 µM (inactive) | 4.45 µM (inactive) | 4.36 µM (inactive) | 1.11 µM (active) | 7.29 µM (inactive) | 3.35 µM (inactive) | 10 µM (inactive) | 1.05 µM (active) | 4.57 µM (inactive) | 2.61 µM (inactive) | 2.56 µM (inactive) | 3.87 µM (inactive) | 11.2 µM (inactive) | 0.547 µM (active) | 3.95 µM (inactive)
7 | COc1ccc2c(-c3ccc(O)cc3)c(Oc3ccccc3)c(=O)oc2c1 | > 66.5 µM (inactive) | – | 3.96 µM (inactive) | 14.6 µM (inactive) | 8.2 µM (inactive) | > 23.2 µM (inactive) | 4.61 µM (inactive) | 24.7 µM (inactive) | > 100 µM (inactive) | 95.9 µM (inactive) | > 24.4 µM (inactive) | > 34.4 µM (inactive) | 12 µM (inactive) | – | > 33.9 µM (inactive) | 16.2 µM (inactive) | 6.49 µM (inactive) | 29.9 µM (inactive) | > 22.9 µM (inactive) | 8.17 µM (inactive)
8 | CCOC(=O)CSc1nc(-c2ccccc2)c(C#N)c(=O)[nH]1 | > 100 µM (inactive) | > 100 µM (inactive) | > 100 µM (inactive) | > 100 µM (inactive) | 21.4 µM (inactive) | > 100 µM (inactive) | > 100 µM (inactive) | > 100 µM (inactive) | > 100 µM (inactive) | > 100 µM (inactive) | > 100 µM (inactive) | > 100 µM (inactive) | > 100 µM (inactive) | > 100 µM (inactive) | > 100 µM (inactive) | > 100 µM (inactive) | > 100 µM (inactive) | > 100 µM (inactive) | > 100 µM (inactive) | > 100 µM (inactive)
9 | O[C@H]1[C@H](O)[C@@H](O)[C@@]2(O)CC[C@@H]1N2 | > 100 µM (inactive) | > 100 µM (inactive) | > 100 µM (inactive) | > 100 µM (inactive) | > 100 µM (inactive) | > 100 µM (inactive) | > 100 µM (inactive) | > 100 µM (inactive) | > 100 µM (inactive) | > 100 µM (inactive) | > 100 µM (inactive) | > 100 µM (inactive) | > 100 µM (inactive) | > 100 µM (inactive) | > 100 µM (inactive) | > 100 µM (inactive) | > 100 µM (inactive) | > 100 µM (inactive) | > 100 µM (inactive) | > 100 µM (inactive)
10 | CCn1c2ccc(C(=O)CCCN3CCCCC3)cc2c2cc(C(=O)CCCN3CCCCC3)ccc21 | 2.13 µM (inactive) | 2.58 µM (inactive) | 2.4 µM (inactive) | 1.98 µM (inactive) | 1.56 µM (inactive) | 1.78 µM (inactive) | 1.58 µM (inactive) | 1.77 µM (inactive) | 2.67 µM (inactive) | 16.9 µM (inactive) | 23 µM (inactive) | 1.74 µM (inactive) | 10.4 µM (inactive) | 1.01 µM (active) | 2.24 µM (inactive) | 1.44 µM (inactive) | 3.43 µM (inactive) | 11.9 µM (inactive) | 2.13 µM (inactive) | 1.81 µM (inactive)
11 | O=C(NNc1ccnc2cc(Cl)ccc12)/C(=C\c1ccccc1Cl)NC(=O)c1ccccc1 | 36.1 µM (inactive) | 46.2 µM (inactive) | 29.8 µM (inactive) | 20.5 µM (inactive) | 18.5 µM (inactive) | 42.7 µM (inactive) | 15.5 µM (inactive) | 27.7 µM (inactive) | 25.2 µM (inactive) | 33.8 µM (inactive) | 21 µM (inactive) | 25.4 µM (inactive) | 35.6 µM (inactive) | 37.9 µM (inactive) | 39.3 µM (inactive) | 20 µM (inactive) | > 100 µM (inactive) | 23.2 µM (inactive) | 17.3 µM (inactive) | 38.2 µM (inactive)
12 | O=C(NNC(=S)Nc1ccccc1)c1csc(NC(=S)NC2CCCCC2)n1 | 62.4 µM (inactive) | – | 54.8 µM (inactive) | > 100 µM (inactive) | 79.3 µM (inactive) | 67.1 µM (inactive) | 64.9 µM (inactive) | 77.4 µM (inactive) | 40.1 µM (inactive) | 33 µM (inactive) | 38.9 µM (inactive) | > 100 µM (inactive) | 94 µM (inactive) | 52.7 µM (inactive) | 47.1 µM (inactive) | 56.5 µM (inactive) | > 100 µM (inactive) | 9.59 µM (inactive) | 48.4 µM (inactive) | > 100 µM (inactive)
13 | CCCC1(NC(=O)C(F)(F)F)CC(OC)OC2COC(c3ccccc3)OC21 (stereo not drawn) | 32 µM (inactive) | > 100 µM (inactive) | 66.4 µM (inactive) | – | 31.5 µM (inactive) | 42.1 µM (inactive) | 30 µM (inactive) | > 100 µM (inactive) | 21.1 µM (inactive) | 58.6 µM (inactive) | 55.7 µM (inactive) | 49.3 µM (inactive) | 9.23 µM (inactive) | 53 µM (inactive) | > 100 µM (inactive) | 51.1 µM (inactive) | 70 µM (inactive) | > 100 µM (inactive) | 46.7 µM (inactive) | 28.3 µM (inactive)
14 | C=C(Br)C(Br)(CCl)CCC(Cl)C(C)C.C=C(Cl)C(Br)(CCl)CCC(Cl)C(C)C (stereo not drawn) | 2.91 µM (inactive) | 3 µM (inactive) | 0.254 µM (active) | 1.83 µM (inactive) | 1.35 µM (inactive) | 1.75 µM (inactive) | 1.94 µM (inactive) | 1.94 µM (inactive) | 2.13 µM (inactive) | 1.7 µM (inactive) | 1.31 µM (inactive) | 1.74 µM (inactive) | 1.87 µM (inactive) | 1.53 µM (inactive) | 0.889 µM (active) | – | 2.3 µM (inactive) | 3.69 µM (inactive) | 1.75 µM (inactive) | 14.8 µM (inactive)
